Test system: schizophrenia
Procedure: At the initiation of hydrogen gas inhalation, a drug therapy with Abilify (intramuscular injection, 400 mg/month, once) and Lexotan tablets (oral administration, 6 mg/day, 3 times per day) was carried out.
Conditions of hydrogen gas inhalation were as follows:
For 40 days after initiation of inhalation: once per day, 70 mL/minute;
The subsequent 1 month: 2 hours per day, 70 mL/minute, hydrogen gas concentration: 3.0 to 4.0%;
The subsequent 4 months: 2 hours per day, 140 mL/minute, hydrogen gas concentration: 6.0 to 7.0%;
The subsequent 4 months: 6 hours per day, 280 mL/minute, hydrogen gas concentration: 6.0 to 7.0% (two hydrogen inhalers were used).
Thereafter, the patient was allowed to inhale hydrogen gas (6.0 to 7.0%, 280 mL/minute) for 6 hours/day, continuously for 9 months.

[1] = about 10 months after initiation of hydrogen inhalation

## [HH] [hydrogen gas]
Abilify intramuscular injection, 400 mg/month
  time for which injection of a medicine (once a month) was continued after initiation of hydrogen inhalation, thereafter stopped: 8 months
Lexotan tablets, oral, 6 mg/day, hydrogen once per day, 70 mL/minute
  time after initiation of hydrogen inhalation at which administration of the oral medicine was terminated: Ten
[1]
  disease-state in the period during which hydrogen inhalation was continued: stably maintained
  phase of the disease: recovery phase
Brotizolam tablet, 0.25 mg/day
  time after initiation of inhalation when use of the sleeping pill was stopped: About 6 months
Brotizolam tablet, 0.25 mg/day, every day at initiation
  time after initiation of inhalation when the patient started to fall asleep without taking the sleeping pill: about 2 months
Examination in January of 2019
  value of the patient in the examination: the same as in a healthy person
Further 9 months of hydrogen gas 6.0 to 7.0%, 280 mL/minute, 6 hours/day
  disease state according to medical examination during an office visit: stable
Inhalation stopped in March of 2019
  recurrence after inhalation of hydrogen gas was stopped: no recurrence occurred
patient, schizophrenia onset 13 years ago, on Abilify and Lexotan, after initiation of hydrogen inhalation, 3.0 to 6.0%
  consecutive symptom, hallucination: disappeared

From US11033574B2, “Method for treating schizophrenia” (MiZ Company Limited, priority 2018, dated 2021)
